The text below walks through data of ChEMBL document CHEMBL3286226, “Discovery of thienopyrimidine-based FLT3 inhibitors from the structural modification of known IKKβ inhibitors” (Bioorg Med Chem Lett, 2014).

In experiment [1] the target is T1, Receptor-type tyrosine-protein kinase FLT3 (Homo sapiens, UniProt P36888).
T1 sequence (P36888 whole entry): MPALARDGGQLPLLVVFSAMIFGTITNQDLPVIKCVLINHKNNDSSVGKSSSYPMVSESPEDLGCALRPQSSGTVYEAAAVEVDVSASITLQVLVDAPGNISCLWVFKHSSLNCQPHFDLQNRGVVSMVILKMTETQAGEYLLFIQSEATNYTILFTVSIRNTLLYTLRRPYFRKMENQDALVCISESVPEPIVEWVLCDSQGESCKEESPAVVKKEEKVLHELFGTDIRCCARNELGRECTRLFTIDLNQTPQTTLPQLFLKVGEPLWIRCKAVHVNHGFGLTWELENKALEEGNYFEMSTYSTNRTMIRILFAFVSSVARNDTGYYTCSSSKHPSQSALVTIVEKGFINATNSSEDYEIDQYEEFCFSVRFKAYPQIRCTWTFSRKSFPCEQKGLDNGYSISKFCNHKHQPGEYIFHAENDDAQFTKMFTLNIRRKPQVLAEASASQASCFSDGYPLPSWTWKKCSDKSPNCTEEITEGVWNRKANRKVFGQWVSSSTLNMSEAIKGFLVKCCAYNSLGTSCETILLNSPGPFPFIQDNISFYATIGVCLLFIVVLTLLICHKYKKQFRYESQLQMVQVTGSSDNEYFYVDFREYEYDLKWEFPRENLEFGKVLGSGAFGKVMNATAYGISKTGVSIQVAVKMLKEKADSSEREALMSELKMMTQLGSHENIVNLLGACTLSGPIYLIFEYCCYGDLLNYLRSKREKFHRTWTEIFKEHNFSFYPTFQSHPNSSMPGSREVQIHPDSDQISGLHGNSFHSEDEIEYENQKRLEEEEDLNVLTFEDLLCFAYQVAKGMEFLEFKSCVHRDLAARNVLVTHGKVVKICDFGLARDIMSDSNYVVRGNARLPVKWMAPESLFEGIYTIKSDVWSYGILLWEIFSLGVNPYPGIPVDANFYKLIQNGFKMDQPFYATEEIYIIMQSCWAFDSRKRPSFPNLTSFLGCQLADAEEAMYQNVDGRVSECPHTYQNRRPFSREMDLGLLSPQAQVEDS
Description: Inhibition of FLT3 kinase (unknown origin)

Experiment [2] concerns the target Receptor-type tyrosine-protein kinase FLT3 (Homo sapiens) (UniProt P36888). The experiment in a line: Inhibition of human FLT3 kinase assessed as residual activity at 10 uM relative to control.
The test system of experiment [3] is Receptor-type tyrosine-protein kinase FLT3 (Homo sapiens), P36888 [D835Y]. Put plainly: Inhibition of human FLT3 kinase D835Y mutant assessed as residual activity at 10 uM relative to control.
The next experiment relates to K562. Put plainly: Growth inhibition of human K562 cells by XTT assay. Type of experiment: functional. Also on record: scale not given: the % may be the effect or the level left. A general note: Formazan colour is commonly taken as a measure of viable cells.
A further experiment concerns MV4-11. The experiment in a line: Growth inhibition of human MV4-11 cells by XTT assay. Type of experiment: functional.
Another experiment relates to HL-60. The experiment in a line: Growth inhibition of human HL60 cells by XTT assay. The experiment is classed as functional.
Experiment [4] can be described thus: Growth inhibition of human THP1 cells by XTT assay. The experiment is classed as functional. The note with it: THP-1.
For experiment [5], the target named is T2, Inhibitor of nuclear factor kappa-B kinase subunit beta (Homo sapiens, UniProt O14920).
T2 sequence (O14920 whole entry): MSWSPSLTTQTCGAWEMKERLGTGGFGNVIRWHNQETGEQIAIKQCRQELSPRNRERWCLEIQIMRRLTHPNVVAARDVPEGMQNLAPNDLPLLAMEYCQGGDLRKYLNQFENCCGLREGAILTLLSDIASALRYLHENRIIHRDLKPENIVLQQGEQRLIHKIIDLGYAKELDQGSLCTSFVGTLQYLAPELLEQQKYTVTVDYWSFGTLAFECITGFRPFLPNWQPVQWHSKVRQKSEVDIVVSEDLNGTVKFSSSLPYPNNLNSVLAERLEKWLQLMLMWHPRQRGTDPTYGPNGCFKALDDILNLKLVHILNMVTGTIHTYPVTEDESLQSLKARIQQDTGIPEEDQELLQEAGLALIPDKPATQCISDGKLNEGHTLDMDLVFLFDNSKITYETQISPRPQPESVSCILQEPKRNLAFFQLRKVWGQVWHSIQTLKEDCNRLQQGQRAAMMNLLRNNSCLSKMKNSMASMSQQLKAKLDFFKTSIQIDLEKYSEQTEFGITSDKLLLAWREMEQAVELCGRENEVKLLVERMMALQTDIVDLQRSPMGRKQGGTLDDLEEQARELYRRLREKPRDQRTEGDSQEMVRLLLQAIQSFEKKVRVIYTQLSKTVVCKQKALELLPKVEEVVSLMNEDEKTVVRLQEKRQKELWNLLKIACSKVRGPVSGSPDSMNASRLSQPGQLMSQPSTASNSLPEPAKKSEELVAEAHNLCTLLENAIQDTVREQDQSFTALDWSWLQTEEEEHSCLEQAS
Description: Inhibition of IKKbeta kinase (unknown origin) by Lance ULight system

Experiment [6] concerns the target T2, Inhibitor of nuclear factor kappa-B kinase subunit beta. The source holds these as a separate data set.
Description: (§1) Inhibition of IKKbeta kinase (unknown origin) by Radioisotope system
For experiment [7], the system named is RAW264.7. Put plainly: cells. Conditions: Mus musculus; call rule not given here.
The test system of experiment [8] is RAW264.7. Put plainly: cells. Conditions: Mus musculus. The source holds these as a separate data set.
Description: Antiinflammatory activity against mouse RAW264.7 cells assessed as reduction of LPS-induced NO production
For experiment [9], the target named is Tyrosine-protein kinase Lyn (Homo sapiens) (UniProt P07948). The experiment in a line: Inhibition of human Lyn assessed as residual activity at 10 uM relative to control.
Experiment [10] addresses Tyrosine-protein kinase BTK (Homo sapiens) (UniProt Q06187). The experiment in a line: Inhibition of human BTK assessed as residual activity at 10 uM relative to control.
The target in experiment [11] is Receptor-type tyrosine-protein kinase FLT3 (Homo sapiens) (UniProt P36888). Put plainly: Inhibition of human Flt3 assessed as residual activity at 10 uM relative to control.
The target in experiment [12] is Inhibitor of nuclear factor kappa-B kinase subunit alpha (Homo sapiens) (UniProt O15111). Put plainly: Inhibition of human IKKalpha assessed as residual activity at 10 uM relative to control.
In experiment [13] the target is Inhibitor of nuclear factor kappa-B kinase subunit beta (Homo sapiens) (UniProt O14920). The experiment in a line: Inhibition of human IKKbeta assessed as residual activity at 1 uM relative to control.
The target of experiment [14] is Tyrosine-protein kinase JAK1 (Homo sapiens) (UniProt P23458). Put plainly: Inhibition of human JAK1 assessed as residual activity at 10 uM relative to control.
In experiment [15] the target is Mitogen-activated protein kinase 8 (Homo sapiens) (UniProt P45983). The experiment in a line: Inhibition of human JNK1alpha1 assessed as residual activity at 10 uM relative to control.
Experiment [16] addresses Mitogen-activated protein kinase 9 (Homo sapiens) (UniProt P45984). The experiment in a line: Inhibition of human JNK2alpha2 assessed as residual activity at 10 uM relative to control.
For experiment [17], the target named is Tyrosine-protein kinase JAK3 (Homo sapiens) (UniProt P52333). The experiment in a line: Inhibition of human JAK3 assessed as residual activity at 10 uM relative to control.
Experiment [18] deals with Tyrosine-protein kinase Lck (Homo sapiens) (UniProt P06239). The experiment in a line: Inhibition of human Lck assessed as residual activity at 10 uM relative to control.
Experiment [19] deals with MAP kinase-activated protein kinase 2 (Homo sapiens) (UniProt P49137). Put plainly: Inhibition of human MAPKAP-K2 assessed as residual activity at 10 uM relative to control.
Experiment [20] deals with Dual specificity mitogen-activated protein kinase kinase 4 (Mus musculus) (UniProt P47809). Put plainly: Inhibition of mouse MKK4 assessed as residual activity at 10 uM relative to control.
Experiment [21] addresses Dual specificity mitogen-activated protein kinase kinase 6 (Homo sapiens) (UniProt P52564). The experiment in a line: Inhibition of human MKK6 assessed as residual activity at 10 uM relative to control.
The target in experiment [22] is Dual specificity mitogen-activated protein kinase kinase 7 (Homo sapiens) (UniProt O14733). Put plainly: Inhibition of human MKK7beta assessed as residual activity at 10 uM relative to control.
For experiment [23], the target named is Ribosomal protein S6 kinase alpha-5 (Homo sapiens) (UniProt O75582). The experiment in a line: Inhibition of human MSK1 assessed as residual activity at 10 uM relative to control.
The next experiment is filed under the species Homo sapiens. Put plainly: Inhibition of human PKA assessed as residual activity at 10 uM relative to control.
In experiment [24] the target is Rho-associated protein kinase 2 (Homo sapiens) (UniProt O75116). The experiment in a line: Inhibition of human ROCK-2 assessed as residual activity at 10 uM relative to control.
Experiment [25] has as its target Mitogen-activated protein kinase 14 (Homo sapiens) (UniProt Q16539). The experiment in a line: Inhibition of human SAPK2alpha assessed as residual activity at 10 uM relative to control.
Experiment [26] has as its target Mitogen-activated protein kinase 11 (Homo sapiens) (UniProt Q15759). The experiment in a line: Inhibition of human SAPK2beta assessed as residual activity at 10 uM relative to control.
Experiment [27] deals with Mitogen-activated protein kinase 12 (Homo sapiens) (UniProt P53778). The experiment in a line: Inhibition of human SAPK3 assessed as residual activity at 10 uM relative to control.
For experiment [28], the target named is Mitogen-activated protein kinase 13 (Homo sapiens) (UniProt O15264). The experiment in a line: Inhibition of human SAPK4 assessed as residual activity at 10 uM relative to control.
Experiment [29] has as its target Non-receptor tyrosine-protein kinase TYK2 (Homo sapiens) (UniProt P29597). Put plainly: Inhibition of human TYK2 assessed as residual activity at 10 uM relative to control.
The target in experiment [30] is T2, Inhibitor of nuclear factor kappa-B kinase subunit beta. This is another data set of the same source.
Description: as §1

pIC50: −log10 of the molar value. Where only a bound is given, the exact number is not on record here.

Sequence of Dual specificity mitogen-activated protein kinase kinase 4 (Mus musculus) (P47809 whole entry): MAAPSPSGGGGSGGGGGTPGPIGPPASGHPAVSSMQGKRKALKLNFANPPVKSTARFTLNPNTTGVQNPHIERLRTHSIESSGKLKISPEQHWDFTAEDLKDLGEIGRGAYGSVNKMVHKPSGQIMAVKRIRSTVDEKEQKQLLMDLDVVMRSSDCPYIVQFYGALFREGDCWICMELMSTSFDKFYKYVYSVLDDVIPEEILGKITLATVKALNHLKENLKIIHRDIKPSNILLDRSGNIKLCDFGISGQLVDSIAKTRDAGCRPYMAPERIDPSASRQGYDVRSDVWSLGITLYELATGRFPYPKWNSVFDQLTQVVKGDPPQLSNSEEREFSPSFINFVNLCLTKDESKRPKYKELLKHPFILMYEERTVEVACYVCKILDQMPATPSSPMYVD
Sequence of Mitogen-activated protein kinase 9 (Homo sapiens) (P45984 whole entry, looked up): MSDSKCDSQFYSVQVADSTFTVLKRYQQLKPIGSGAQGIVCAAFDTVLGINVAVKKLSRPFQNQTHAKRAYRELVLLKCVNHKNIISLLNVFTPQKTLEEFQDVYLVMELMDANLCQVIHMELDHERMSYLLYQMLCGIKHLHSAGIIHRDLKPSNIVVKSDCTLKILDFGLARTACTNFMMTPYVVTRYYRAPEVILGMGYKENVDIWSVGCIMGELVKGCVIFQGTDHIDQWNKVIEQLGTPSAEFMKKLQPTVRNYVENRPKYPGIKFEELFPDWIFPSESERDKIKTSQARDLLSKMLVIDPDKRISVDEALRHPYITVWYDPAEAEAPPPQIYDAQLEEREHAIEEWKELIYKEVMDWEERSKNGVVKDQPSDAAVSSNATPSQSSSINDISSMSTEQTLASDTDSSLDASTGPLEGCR
Sequence of Dual specificity mitogen-activated protein kinase kinase 6 (Homo sapiens) (P52564 whole entry): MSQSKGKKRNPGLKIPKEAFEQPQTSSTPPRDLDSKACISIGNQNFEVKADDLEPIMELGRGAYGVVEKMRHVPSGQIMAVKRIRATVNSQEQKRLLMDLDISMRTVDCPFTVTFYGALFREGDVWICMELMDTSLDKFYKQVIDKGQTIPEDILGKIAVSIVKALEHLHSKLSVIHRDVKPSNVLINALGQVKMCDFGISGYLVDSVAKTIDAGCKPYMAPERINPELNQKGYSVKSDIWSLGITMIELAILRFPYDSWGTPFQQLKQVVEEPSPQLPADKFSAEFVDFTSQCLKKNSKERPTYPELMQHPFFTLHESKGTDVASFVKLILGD
Sequence of Mitogen-activated protein kinase 13 (Homo sapiens) (O15264 whole entry): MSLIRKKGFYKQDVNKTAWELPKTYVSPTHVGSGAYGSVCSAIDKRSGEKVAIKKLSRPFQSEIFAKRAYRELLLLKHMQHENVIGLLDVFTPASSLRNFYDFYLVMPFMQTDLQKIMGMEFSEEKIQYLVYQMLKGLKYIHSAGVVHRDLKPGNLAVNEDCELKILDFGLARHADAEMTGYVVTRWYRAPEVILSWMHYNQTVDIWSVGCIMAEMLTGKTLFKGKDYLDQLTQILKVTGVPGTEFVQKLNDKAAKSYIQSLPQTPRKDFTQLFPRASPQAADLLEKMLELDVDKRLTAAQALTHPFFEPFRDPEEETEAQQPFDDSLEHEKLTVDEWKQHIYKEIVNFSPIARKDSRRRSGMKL
Sequence of Ribosomal protein S6 kinase alpha-5 (Homo sapiens) (O75582 whole entry, looked up): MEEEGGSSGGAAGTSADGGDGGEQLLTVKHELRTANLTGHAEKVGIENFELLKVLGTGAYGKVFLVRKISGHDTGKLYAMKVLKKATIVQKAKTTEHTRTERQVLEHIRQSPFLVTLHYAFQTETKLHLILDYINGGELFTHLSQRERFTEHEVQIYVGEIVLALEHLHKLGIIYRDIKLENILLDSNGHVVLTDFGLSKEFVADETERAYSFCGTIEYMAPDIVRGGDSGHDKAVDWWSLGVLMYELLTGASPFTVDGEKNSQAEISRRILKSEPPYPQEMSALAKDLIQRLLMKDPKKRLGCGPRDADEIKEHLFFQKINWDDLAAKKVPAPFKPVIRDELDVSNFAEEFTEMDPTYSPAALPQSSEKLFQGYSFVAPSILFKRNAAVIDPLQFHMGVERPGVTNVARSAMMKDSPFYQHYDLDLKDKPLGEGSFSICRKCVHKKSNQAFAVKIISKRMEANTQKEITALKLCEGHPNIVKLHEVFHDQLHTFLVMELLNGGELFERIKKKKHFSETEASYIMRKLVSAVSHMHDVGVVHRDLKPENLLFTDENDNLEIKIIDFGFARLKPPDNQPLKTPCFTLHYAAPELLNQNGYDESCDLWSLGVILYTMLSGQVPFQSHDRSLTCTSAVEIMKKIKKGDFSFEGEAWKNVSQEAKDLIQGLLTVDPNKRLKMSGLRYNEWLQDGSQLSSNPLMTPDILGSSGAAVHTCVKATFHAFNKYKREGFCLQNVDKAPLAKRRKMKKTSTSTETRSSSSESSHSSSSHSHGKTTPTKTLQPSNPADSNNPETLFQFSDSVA
Sequence of Mitogen-activated protein kinase 11 (Homo sapiens) (Q15759 whole entry): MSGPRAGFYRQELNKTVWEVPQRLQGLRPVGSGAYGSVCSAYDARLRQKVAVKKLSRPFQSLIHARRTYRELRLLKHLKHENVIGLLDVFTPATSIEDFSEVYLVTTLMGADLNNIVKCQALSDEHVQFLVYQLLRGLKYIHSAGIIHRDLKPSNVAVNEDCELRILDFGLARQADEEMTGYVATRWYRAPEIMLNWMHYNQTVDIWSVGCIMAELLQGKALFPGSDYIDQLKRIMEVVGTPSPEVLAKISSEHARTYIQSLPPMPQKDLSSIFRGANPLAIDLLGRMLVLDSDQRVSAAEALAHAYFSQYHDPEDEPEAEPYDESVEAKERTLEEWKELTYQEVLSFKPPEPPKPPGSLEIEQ
Sequence of Tyrosine-protein kinase JAK1 (Homo sapiens) (P23458 whole entry): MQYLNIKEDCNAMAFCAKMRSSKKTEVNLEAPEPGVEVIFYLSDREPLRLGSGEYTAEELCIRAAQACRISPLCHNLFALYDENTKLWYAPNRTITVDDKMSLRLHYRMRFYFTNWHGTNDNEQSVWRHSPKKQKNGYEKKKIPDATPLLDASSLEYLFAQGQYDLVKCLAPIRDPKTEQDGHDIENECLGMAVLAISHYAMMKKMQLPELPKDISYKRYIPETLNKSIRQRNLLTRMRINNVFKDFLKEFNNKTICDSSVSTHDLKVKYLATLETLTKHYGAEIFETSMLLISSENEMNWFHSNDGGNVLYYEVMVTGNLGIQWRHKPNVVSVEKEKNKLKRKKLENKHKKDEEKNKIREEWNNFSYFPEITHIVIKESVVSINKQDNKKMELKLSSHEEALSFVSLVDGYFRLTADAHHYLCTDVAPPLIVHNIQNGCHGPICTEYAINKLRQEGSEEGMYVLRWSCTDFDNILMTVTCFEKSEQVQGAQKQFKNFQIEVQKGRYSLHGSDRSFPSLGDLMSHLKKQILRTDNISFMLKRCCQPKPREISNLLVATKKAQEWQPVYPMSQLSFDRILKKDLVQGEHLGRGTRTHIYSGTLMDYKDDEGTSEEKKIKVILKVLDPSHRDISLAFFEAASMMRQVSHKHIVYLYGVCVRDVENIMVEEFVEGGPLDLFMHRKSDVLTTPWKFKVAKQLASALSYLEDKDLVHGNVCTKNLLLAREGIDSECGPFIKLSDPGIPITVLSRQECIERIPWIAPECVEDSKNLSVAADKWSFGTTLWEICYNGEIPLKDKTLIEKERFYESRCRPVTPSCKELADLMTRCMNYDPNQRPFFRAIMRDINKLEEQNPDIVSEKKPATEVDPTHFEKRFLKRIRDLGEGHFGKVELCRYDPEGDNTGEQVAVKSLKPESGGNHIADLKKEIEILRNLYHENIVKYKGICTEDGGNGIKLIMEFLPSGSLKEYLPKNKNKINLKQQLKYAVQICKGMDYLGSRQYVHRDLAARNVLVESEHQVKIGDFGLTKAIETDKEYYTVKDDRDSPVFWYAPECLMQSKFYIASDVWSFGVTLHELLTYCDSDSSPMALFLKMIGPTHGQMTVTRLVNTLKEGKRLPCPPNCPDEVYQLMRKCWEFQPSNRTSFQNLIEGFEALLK
Sequence of Dual specificity mitogen-activated protein kinase kinase 7 (Homo sapiens) (O14733 whole entry): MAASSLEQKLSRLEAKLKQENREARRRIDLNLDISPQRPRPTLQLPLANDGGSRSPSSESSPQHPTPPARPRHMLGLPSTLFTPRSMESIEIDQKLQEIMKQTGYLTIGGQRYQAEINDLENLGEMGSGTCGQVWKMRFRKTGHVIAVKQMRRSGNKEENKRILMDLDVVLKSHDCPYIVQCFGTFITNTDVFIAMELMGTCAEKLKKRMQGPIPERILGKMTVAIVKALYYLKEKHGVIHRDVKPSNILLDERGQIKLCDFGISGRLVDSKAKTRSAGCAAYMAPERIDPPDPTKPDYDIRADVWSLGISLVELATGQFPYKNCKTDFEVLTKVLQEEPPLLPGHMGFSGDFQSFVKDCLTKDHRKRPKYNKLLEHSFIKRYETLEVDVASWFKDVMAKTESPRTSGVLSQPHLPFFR
Sequence of Mitogen-activated protein kinase 12 (Homo sapiens) (P53778 whole entry): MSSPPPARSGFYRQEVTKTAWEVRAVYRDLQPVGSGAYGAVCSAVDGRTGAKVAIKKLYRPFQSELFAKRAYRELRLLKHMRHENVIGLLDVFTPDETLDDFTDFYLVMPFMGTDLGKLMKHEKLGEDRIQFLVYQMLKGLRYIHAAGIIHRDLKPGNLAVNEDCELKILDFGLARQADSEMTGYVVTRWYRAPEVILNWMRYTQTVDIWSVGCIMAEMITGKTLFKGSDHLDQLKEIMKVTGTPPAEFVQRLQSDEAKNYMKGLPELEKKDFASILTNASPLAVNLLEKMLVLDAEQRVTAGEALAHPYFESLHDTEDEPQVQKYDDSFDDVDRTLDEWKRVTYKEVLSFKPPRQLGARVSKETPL
Sequence of Mitogen-activated protein kinase 14 (Homo sapiens) (Q16539 whole entry): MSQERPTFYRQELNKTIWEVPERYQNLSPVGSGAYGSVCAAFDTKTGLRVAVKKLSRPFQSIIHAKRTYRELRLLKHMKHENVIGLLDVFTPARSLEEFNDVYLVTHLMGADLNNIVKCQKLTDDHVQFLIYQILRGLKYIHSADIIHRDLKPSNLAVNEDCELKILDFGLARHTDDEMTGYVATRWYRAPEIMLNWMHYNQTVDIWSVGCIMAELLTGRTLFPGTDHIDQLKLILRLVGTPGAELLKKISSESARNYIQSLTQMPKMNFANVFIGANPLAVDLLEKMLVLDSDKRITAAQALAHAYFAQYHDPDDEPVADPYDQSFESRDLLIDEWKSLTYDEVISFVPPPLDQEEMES

One may read the pIC50 as −log10 of the IC50, conventionally taken in molar units. For orientation: GI50 means the concentration giving 50% growth inhibition. Turning to `CC1=CC(=O)N(Nc2nc(-c3cccs3)nc3scc(C)c23)C1=O`, the pIC50 in [1] was 7.19; in experiment [5] it was less than 4.30; with RAW264.7 [7] it was 5.37; in the experiment with RAW264.7 [8], 5.72. In addition, the Activity turned out to be 5% in experiment [2], 2% in [3] and 0.257% in the experiment with K562. Besides, the 50% growth inhibitory concentration (GI50) in the experiment on MV4-11 came out at 3 nM; in the experiment on HL-60, 264 nM; in experiment [4] it was 111 nM. Besides, the IC50 entry in [6] is “Not Active”.

In the case of `CC1=CC(=O)N(Nc2nc(-c3cccs3)nc3scc(-c4ccccc4)c23)C1=O`, the Activity turned out to be 92% in [9]; 76% in experiment [10]; 8% in experiment [11]; 119% in experiment [12]; 116% in [13]; 103% in experiment [14]. Moreover, the Activity in experiment [15] came to 87%; in experiment [16], 94%; in experiment [17], 121%; in experiment [18], 86%; in experiment [19] it was 102%; in experiment [20], 113%. Besides, the Activity in [21] is 99%; in experiment [22] it was 122%; in [23], 96%; in the experiment listed under Homo sapiens, 125%; in experiment [24], 99%; in experiment [25] it was 92%. The Activity was determined as 98% in [26], 109% in experiment [27], 90% in experiment [28] and 86% in experiment [29]. Moreover, the negative logarithm of the IC50 (pIC50) is 6.68 in experiment [1], less than 4.30 in experiment [5], 5.89 in the experiment on RAW264.7 [7] and 6.12 with RAW264.7 [8]. In experiment [6], the IC50 entry is given as “Not Active”.

For the molecule `CC1=CC(=O)N(Nc2nc(-c3cccs3)nc3scc(-c4cccc(OCCN5CCOCC5)c4)c23)C1=O`, the pIC50 in [1] is 6.27; in experiment [30] it was less than 4.30; in the experiment with RAW264.7 [7] it was 5.62; in the experiment on RAW264.7 [8] it was 5.49.

As to `CC1=CC(=O)N(Nc2nc(-c3cccs3)nc3scc(-c4cccc(OCCN(C)C)c4)c23)C1=O`, the negative-log IC50 (pIC50) in experiment [5] was less than 4.30; in experiment [30], less than 4.30; in the experiment on RAW264.7 [7], 5.01; in the experiment with RAW264.7 [8], 5.12.
